From the supplement of paper PMC10883282
Where a name gives a salt, the structure may show the parent alone. ± gives the standard deviation of the averaged measurements.

Tested on: RD
Assay: relative viability vs DMSO control (72 h) (fraction); higher = more viable cells
Outline: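 Serially diluted compound, 2.5 µl from source plates spanning 10 mM to 0.0002 mM, was added 24 h after sarcoma cell lines were seeded in 384-well plates at densities targeting 80–90% confluence. Plates then sat 72 h at 37 °C, 5% CO2, with 0.1% DMSO vehicle and a 5 µM positive control. Relative viability came from ATPLite as percent growth, averaged over up to triplicate wells, and was rescaled with 1 as full and 0 as none.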

Compound	relative viability (0.00017 µM)	relative viability (0.00051 µM)	relative viability (0.00152 µM)	relative viability (0.00457 µM)	relative viability (0.01372 µM)	relative viability (0.04115 µM)	relative viability (0.1235 µM)	relative viability (0.3704 µM)	relative viability (1.111 µM)	relative viability (3.333 µM)	relative viability (10 µM)
CCCS(=O)(=O)Nc1ccc(F)c(C(=O)c2c[nH]c3ncc(-c4ccc(Cl)cc4)cc23)c1F [Vemurafenib]	1.14 ± 0.071	1.12 ± 0.08	1.14 ± 0.073	1.13 ± 0.073	1.12 ± 0.059	1.13 ± 0.061	1.11 ± 0.053	1.12 ± 0.053	1.14 ± 0.07	1.11 ± 0.036	0.785 ± 0.079
COCc1c(-c2cc3cc(C)cc(OC)c3s2)c2c(N)ncnn2c1CN1CCNC(=O)C1 [Rogaratinib]	1.03 ± 0.022	1.09 ± 0.017	1.08 ± 0.024	1.11 ± 0.037	1.09 ± 0.033	1.12 ± 0.016	1.1 ± 0.057	1.08 ± 0.03	1.07 ± 0.047	0.923 ± 0.042	0.569 ± 0.015
C=CC(=O)N1CCC([C@@H]2CCNc3c(C(N)=O)c(-c4ccc(Oc5ccccc5)cc4)nn32)CC1 [Zanubrutinib]	0.942 ± 0.064	0.952 ± 0.048	0.964 ± 0.068	0.958 ± 0.058	0.952 ± 0.046	0.96 ± 0.079	0.926 ± 0.075	0.893 ± 0.11	0.876 ± 0.1	0.847 ± 0.081	0.843 ± 0.06
COc1cccc2c1C(=O)c1c(O)c3c(c(O)c1C2=O)C[C@@](O)(C(=O)CO)C[C@@H]3O[C@H]1C[C@H](N)[C@H](O)[C@H](C)O1 [Doxorubicin Hydrochloride]	1.12 ± 0.074	1.09 ± 0.068	1.12 ± 0.069	1.08 ± 0.072	1.1 ± 0.028	0.892 ± 0.011	0.556 ± 0.019	0.214 ± 0.015	0.0954 ± 0.008	0.0741 ± 0.0052	0.0196 ± 0.00075
CC(C)NC(=O)C1CCC(n2c(NC(=O)c3ccc(F)cc3)nc3ccc(CN4CCC(C(C)(C)O)CC4)cc32)CC1 (centres undefined) [Belizatinib]	1.1 ± 0.05	1.09 ± 0.06	1.08 ± 0.079	1.09 ± 0.02	1.09 ± 0.041	1.09 ± 0.025	1 ± 0.014	0.844 ± 0.058	0.456 ± 0.027	0.268 ± 0.0066	0.122 ± 0.011
COc1cc2/c(=N/c3ccc(Br)cc3F)nc[nH]c2cc1OCC1CCN(C)CC1 [Vandetanib]	1.1 ± 0.074	1.1 ± 0.066	1.09 ± 0.057	1.11 ± 0.081	1.1 ± 0.055	1.11 ± 0.088	1.04 ± 0.083	1.01 ± 0.061	0.96 ± 0.037	0.139 ± 0.017	0.0241 ± 0.0083
C[C@@H]1CCN(C(=O)CC#N)C[C@@H]1N(C)c1ncnc2[nH]ccc12 [Tofacitinib]	1.05 ± 0.051	1.08 ± 0.064	1.1 ± 0.072	1.12 ± 0.055	1.13 ± 0.068	1.13 ± 0.063	1.13 ± 0.09	1.11 ± 0.029	1.14 ± 0.065	1.14 ± 0.051	1.13 ± 0.056
Cn1cnc2c(F)c(Nc3ccc(Br)cc3F)c(C(=O)NOCCO)cc21 [Binimetinib]	1.01 ± 0.049	1 ± 0.04	0.978 ± 0.037	0.89 ± 0.054	0.798 ± 0.05	0.746 ± 0.028	0.677 ± 0.016	0.627 ± 0.036	0.588 ± 0.015	0.534 ± 0.035	0.507 ± 0.012
Cc1nc(-c2cn3c(n2)-c2ccc(-c4cnn(C(C)(C)C(N)=O)c4)cc2OCC3)n(C(C)C)n1 [Taselisib]	1.11 ± 0.018	1.08 ± 0.041	1.07 ± 0.037	1.06 ± 0.036	1.03 ± 0.028	0.888 ± 0.027	0.687 ± 0.021	0.524 ± 0.017	0.444 ± 0.027	0.426 ± 0.0056	0.36 ± 0.026
